Patent US20230159583A1, “COMPOUND FOR TREATING GOUT, PREPARATION METHOD THEREFOR, AND USE THEREOF” (Huazhong Pharmaceutical Co., Ltd., priority 2020, published 2023)
Read-outs that look alike come from different tables or passages of the source.

What was measured:
Assay type in all cases: in vivo
[1] = test system: rat paw swelling induced by monosodium urate (MSU); experiment: rat paw swelling model induced by monosodium urate (MSU)
Text: Gout is a disease unique to human, and gouty arthritis is an inflammatory reaction caused by the deposition of monosodium urate (MSU) in local joint tissues. Since purine metabolism pathways in some mammals such as mice and rabbits are different from those in humans, it is impossible to construct a gouty arthritis model by the method of interfering with purine metabolism disorders, so the most direct method for causing gouty arthritis is to directly inject MSU into the joint cavity of the model animal. The model is only used for simulating local joint inflammation of gout, is suitable for observation of local arthritis symptoms, is a common method for screening anti-inflammatory effects of gout drugs at present, and has the advantages of stability, easy operation and the like. (Reference: Li Na, Hua Long, and Yuan Hui. Research progress of gout animal models [J]. Medical theory and practice, 2016(24).
The anti-gout effect of the compound prepared in the above Example was detected by using a rat paw swelling model induced by monosodium urate (MSU), and the control sample was methylprednisolone.
Experimental method: MSU was used as an inflammatory agent, injected subcutaneously into the hind paws of rats to cause paw swelling, and then the volume of the paws was measured, and the swelling rates and swelling inhibition rates of the treatment group and the control group were compared. On the day of the experiment, the volume of right hind paw (ml) of each rat was measured firstly, and then after the onset of inflammation, the volume of right hind paw was measured so that the difference of volume of paw before and after inflammation was swelling degree, and the swelling inhibition rate of paw (swelling inhibition rate %=(C−T)/C*100%); C=swelling rate of the control group %, and T=swelling rate of the treatment group) was calculated. This method is one of the commonly used methods for screening anti-inflammatory effects of gout drugs, and the model is stable and easy to operate.
(2) One week before the subcutaneous injection of MSU into the feet and soles of the rats, the rats were given different doses of the test drugs, and the drugs were given by gavage once a day, for seven consecutive days. The circumference of the right hind paw was marked and measured before the last administration, and the average value of the two measurements was taken as the standard. 1 h after the last administration, animals in other groups were given 50 μL of 2% MSU in addition to the blank control group, and the paw circumference was measured 1 h after the onset of inflammation. […]

[2] = test system: carrageenan-induced mouse paw swelling; experiment: carrageenan-induced mouse paw swelling model
Description: The anti-inflammatory effects of the compounds prepared in the above Examples were detected using a carrageenan-induced mouse paw swelling model, and the control sample was methylprednisolone:
Carrageenan-induced mouse paw swelling model is a classical acute inflammation model commonly used for evaluating or screening anti-inflammatory effects of drugs. When carrageenan is injected into the paw of mice, a series of reactions similar to human acute inflammation such as local capillary dilatation, increased vascular permeability, exudation and edema can be caused, so the model can be widely used in the evaluation of new drugs.
Reference for experimental method: Yang Huan, Cheng Xiao, Wang Yuehua, Du Guanhua. Effects of esculin on the swelling of toes and inflammation induced by carrageenan in mice [J]. Chinese Journal of New Drugs, 2016(25):2322.
On the day of the experiment, the circumference of right hind paw (cm) of each mouse was measured firstly, and then, after the onset of inflammation, the circumference of right hind paw was measured so that the difference of the circumferences of the paws before and after inflammation was swelling degree, and the swelling inhibition rate of paw (swelling inhibition rate %=(C−T)/C*100%); C=swelling rate of the control group %, and T=swelling rate of the treatment group) was calculated.
(2) Gavage administration was performed once a day for seven consecutive days. The circumference of the right hind paw was marked and measured before the last administration, and the average value of the two measurements was taken as the standard. 30 min after the last administration, 20 μL/mice of 0.5% carrageenan was injected into the right hind ankle of the mice to induce inflammation, and the circumference of paw was measured 180 min after the onset of inflammation. […]

ICR mice = conditions: p.o.
Description: The experiment was designed according to the “Technical Guideline for Acute Toxicity Test of Chemical Drugs” issued by the State Food and Drug Administration in March 2005. The doses administered were 4 g/kg, 4.91 g/kg, 6.14 g/kg, 7.68 g/kg, 9.6 g/kg, 12 g/kg, and 15 g/kg (the dose could be adjusted according to the actual test results), 12 ICR mice per dose group. If the administration volume is greater than 0.5 ml, it is better to perform the drug administration in two or more times (Note: according to the national standard GB 15193.3-2014, if multiple drug administrations are required, the time interval should be 4 h to 6 h each time, and the patient should be fasted on the day before drug administration).

**Q.** Which results are given for CCCCC(=O)O[C@]1(/C(CO)=N/O)CC[C@H]2[C@@H]3C[C@H](C)C4=CC(=NO)C=C[C@]4(C)[C@H]3[C@@H](O)C[C@@]21C [Example 17, (6S,8S,9S,10R,11S,13S,14S,17R,E)-11-hydroxy-17-((E)-2-hydroxy-1-(hydroxyimino)ethyl)-3-(hydroxyimino)-6,10,13-trimethyl-6,7,8,9,10,11,12,13,14,15,16,17-dodecahydro-3H-cyclopentane[α]phenanthrene-17-yl valerate]?
**A.** inhibition in vivo at 90 mg/kg ([1]; Rattus norvegicus, po, 1 h, SD rats, 90 mg/kg by gavage once a day for seven days, 1 h after onset of inflammation, read-out: Swelling inhibition rate): 96.4%; inhibition in vivo at 0.36 mg/kg ([1]; Rattus norvegicus, po, 1 h, rat, MSU-induced paw swelling, dosage 0.36 mg/kg, read-out: Swelling inhibition rate): 10.3%; inhibition in vivo at 1.8 mg/kg ([1]; Rattus norvegicus, po, 1 h, rat, MSU-induced paw swelling, dosage 1.8 mg/kg, read-out: Swelling inhibition rate): 56.1%; inhibition in vivo at 9 mg/kg ([1]; Rattus norvegicus, po, 1 h, rat, MSU-induced paw swelling, dosage 9 mg/kg, read-out: Swelling inhibition rate): 78.2%; inhibition in vivo at 90 mg/kg ([1]; Rattus norvegicus, po, 1 h, rat, MSU-induced paw swelling, dosage 90 mg/kg, read-out: Swelling inhibition rate): 97%; change in vivo at 90 mg/kg ([1]; Rattus norvegicus, po, SD rats, 90 mg/kg by gavage once a day for seven days, 1 h after onset of inflammation, read-out: Swelling degree): 11.9%; Swelling value ([1]; SD rats, 90 mg/kg by gavage once a day for seven days, 1 h after onset of inflammation): 0.14 mL; Mean volume of paw after administration ([1]; SD rats, 90 mg/kg by gavage once a day for seven days, 1 h after onset of inflammation (50 μL 2% MSU)): 1.32 mL; Swelling value ([2]; ICR mice, 130 mg/kg by gavage once a day for seven days, 180 min after onset of inflammation): 0.01 cm; Circumference of the paw after administration ([2]; ICR mice, 130 mg/kg by gavage once a day for seven days, 180 min after onset of inflammation (0.5% carrageenan)): 1.43 cm; inhibition in vivo at 0.26 mg/kg ([2]; Mus musculus, po, 3 h, mouse, carrageenan-induced paw swelling, dosage 0.26 mg/kg, read-out: Swelling inhibition rate): 28.2%; inhibition in vivo at 13 mg/kg ([2]; Mus musculus, po, 3 h, mouse, carrageenan-induced paw swelling, dosage 13 mg/kg, read-out: Swelling inhibition rate): 60.3%; inhibition in vivo at 130 mg/kg ([2]; Mus musculus, po, 3 h, mouse, carrageenan-induced paw swelling, dosage 130 mg/kg, read-out: Swelling inhibition rate): 98.7%; change in vivo at 130 mg/kg ([2]; Mus musculus, po, 3 h, ICR mice, 130 mg/kg by gavage once a day for seven days, 180 min after onset of inflammation, read-out: Swelling degree): 0.7%; inhibition in vivo at 130 mg/kg ([2]; Mus musculus, po, 3 h, ICR mice, 130 mg/kg by gavage once a day for seven days, 180 min after onset of inflammation, read-out: Swelling inhibition rate): 96.4%; Mortality (ICR mice; 4 g/kg): 0/12; Mortality (ICR mice; 4.91 g/kg): 0/12; Mortality (ICR mice; 6.14 g/kg): 0/12; Mortality (ICR mice; 7.68 g/kg): 0/12; Mortality (ICR mice; 9.6 g/kg): 0/12; Mortality (ICR mice; 12 g/kg): 0/12; Mortality (ICR mice; 15 g/kg): 0/12
